The test system of the assay is recombinant NL-RLuc virus (NL4-3 derived HIV). Put plainly: Inhibition of HIV replication (NL-RLuc virus in MT-2 cells, luciferase readout). Type of assay: cell-based. As to conditions: Human immunodeficiency virus 1, NL43, MT2, 120 h. From the text: Inhibition of HIV Replication:
A recombinant NL-RLuc proviral clone was constructed in which a section of the nef gene from NL4-3 was replaced with the Renilla Luciferase gene. This virus is fully infectious and can undergo multiple cycles of replication in cell culture. In addition, the luciferous reporter provides a simple and easy method for quantitating the extent of virus growth and consequently, the antiviral activity of test compounds. The plasmid pNLRLuc contains the proviral NL-Rluc DNA cloned into pUC 18 at the PvuII site. The NL-RLuc virus was prepared by transfection of 293T cells with the plasmid pNLRLuc. Transfections were performed using the LipofectAMINE PLUS kit from Invitrogen (Carlsbad, Calif.) according to the manufacturer and the virus generated was titered in MT-2 cells. For susceptibility analyses, the titrated virus was used to infect MT-2 cells in the presence of compound, and after 5 days of incubation, cells were processed and quantitated for virus growth by the amount of expressed luciferase. Assay media was RPMI 1640 supplemented with 10% heat inactivated fetal bovine serum (FBS), 100 units/ml penicillin G/100 units/ml streptomycin, 10 mM HEPES buffer pH 7.55 and 2 mM L-glutamine. The results from at least 2 experiments were used to calculate the EC50 values. Luciferase was quantitated using the Dual Luciferase kit from Promega (Madison, Wis.). Susceptibility of viruses to compounds was determined by incubation in the presence of serial dilutions of the compound. The 50% effective concentration (EC50) was calculated by using the exponential form of the median effect equation where (Fa)=1/[1+(ED50/drug conc.)^m] (Johnson V A, Byington R T. Infectivity Assay. In Techniques in HIV Research. ed. Aldovini A, Walker B D. 71-76. New York: Stockton Press. 1990).

In the case of `Cc1nc(C)c([C@H](OC(C)(C)C)C(=O)O)c(N2CCC(C)(C)CC2)c1-c1ccc2c(c1)CCN(c1nc3ccccc3n1C)C2` [Compound 17, (S)-2-(tert-butoxy)-2-(4-(4,4-dimethylpiperidin-1-yl)-2,6-dimethyl-5-(2-(1-methyl-1H-benzo[d]imidazol-2-yl)-1,2,3,4-tetrahydroisoquinolin-6-yl)pyridin-3-yl)acetic acid], the EC50 (as a rule, the concentration that produces a half-maximal response) stood at 22 nM.

As for `Cc1nc(C)c([C@H](OC(C)(C)C)C(=O)O)c(N2CCC(C)(C)CC2)c1-c1ccc2c(c1)CCN(c1noc3ccccc13)C2` [Compound 18, (S)-2-(5-(2-(benzo[d]isoxazol-3-yl)-1,2,3,4-tetrahydroisoquinolin-6-yl)-4-(4,4-dimethylpiperidin-1-yl)-2,6-dimethylpyridin-3-yl)-2-(tert-butoxy)acetic acid], the concentration giving a half-maximal response (EC50) was found to be 5 nM.

Regarding `Cc1nc(N2CCc3cc(-c4c(C)nc(C)c([C@H](OC(C)(C)C)C(=O)O)c4N4CCC(C)(C)CC4)ccc3C2)c2cnn(C)c2n1` [Compound 19, (S)-2-(tert-butoxy)-2-(5-(2-(1,6-dimethyl-1H-pyrazolo[3,4-d]pyrimidin-4-yl)-1,2,3,4-tetrahydroisoquinolin-6-yl)-4-(4,4-dimethylpiperidin-1-yl)-2,6-dimethylpyridin-3-yl)acetic acid], the EC50 came out at 1 nM.

Turning to `Cc1nc(C)c([C@H](OC(C)(C)C)C(=O)O)c(N2CCC(C)(C)CC2)c1-c1ccc2c(c1)CCN(c1ncnc3[nH]ccc13)C2` [Compound 20, (S)-2-(5-(2-(7H-pyrrolo[2,3-d]pyrimidin-4-yl)-1,2,3,4-tetrahydroisoquinolin-6-yl)-4-(4,4-dimethylpiperidin-1-yl)-2,6-dimethylpyridin-3-yl)-2-(tert-butoxy)acetic acid], the EC50 came out at 3 nM.

Turning to `Cc1nc(C)c([C@H](OC(C)(C)C)C(=O)O)c(N2CCC(C)(C)CC2)c1-c1ccc2c(c1)CCN(c1nc(O)c3[nH]cnc3n1)C2` [Compound 21, (S)-2-(tert-butoxy)-2-(4-(4,4-dimethylpiperidin-1-yl)-5-(2-(6-hydroxy-7H-purin-2-yl)-1,2,3,4-tetrahydroisoquinolin-6-yl)-2,6-dimethylpyridin-3-yl)acetic acid], the half-maximal effective concentration (EC50) was determined as 5990 nM.

Turning to `Cc1nc(C)c([C@H](OC(C)(C)C)C(=O)O)c(N2CCC(C)(C)CC2)c1-c1ccc2c(c1)CCN(c1ncnc3cc[nH]c13)C2` [Compound 22, (S)-2-(5-(2-(5H-pyrrolo[3,2-d]pyrimidin-4-yl)-1,2,3,4-tetrahydroisoquinolin-6-yl)-4-(4,4-dimethylpiperidin-1-yl)-2,6-dimethylpyridin-3-yl)-2-(tert-butoxy)acetic acid], the EC50 worked out at 286 nM.

As to `CNc1nc(N2CCc3cc(-c4c(C)nc(C)c([C@H](OC(C)(C)C)C(=O)O)c4N4CCC(C)(C)CC4)ccc3C2)nc2nc[nH]c12` [Compound 23, (S)-2-(tert-butoxy)-2-(4-(4,4-dimethylpiperidin-1-yl)-2,6-dimethyl-5-(2-(6-(methylamino)-7H-purin-2-yl)-1,2,3,4-tetrahydroisoquinolin-6-yl)pyridin-3-yl)acetic acid], the concentration giving a half-maximal response (EC50) was 62 nM.

As to `Cc1nc(C)c([C@H](OC(C)(C)C)C(=O)O)c(N2CCC(C)(C)CC2)c1-c1ccc2c(c1)CCN(c1nccc3[nH]cnc13)C2` [Compound 24, (S)-2-(5-(2-(1H-imidazo[4,5-c]pyridin-4-yl)-1,2,3,4-tetrahydroisoquinolin-6-yl)-4-(4,4-dimethylpiperidin-1-yl)-2,6-dimethylpyridin-3-yl)-2-(tert-butoxy)acetic acid], the half-maximal effective concentration (EC50) came to 56 nM.

For the compound `Cc1nc(C)c([C@H](OC(C)(C)C)C(=O)O)c(N2CCC(C)(C)CC2)c1-c1ccc2c(c1)CCN(c1ncc3cc[nH]c3n1)C2` [Compound 25, (S)-2-(5-(2-(7H-pyrrolo[2,3-d]pyrimidin-2-yl)-1,2,3,4-tetrahydroisoquinolin-6-yl)-4-(4,4-dimethylpiperidin-1-yl)-2,6-dimethylpyridin-3-yl)-2-(tert-butoxy)acetic acid], the half-maximal effective concentration (EC50) was determined as 4 nM.

As to `COc1nc(N2CCc3cc(-c4c(C)nc(C)c([C@H](OC(C)(C)C)C(=O)O)c4N4CCC(C)(C)CC4)ccc3C2)c2cc[nH]c2n1` [Compound 27, (S)-2-(tert-butoxy)-2-(4-(4,4-dimethylpiperidin-1-yl)-5-(2-(2-methoxy-7H-pyrrolo[2,3-d]pyrimidin-4-yl)-1,2,3,4-tetrahydroisoquinolin-6-yl)-2,6-dimethylpyridin-3-yl)acetic acid], the EC50 was 2 nM.

For the compound `Cc1nc(C)c([C@H](OC(C)(C)C)C(=O)O)c(N2CCC(C)(C)CC2)c1-c1ccc2c(c1)CCN(c1ncnc3cc(C(C)(C)C)sc13)C2` [Compound 28, (S)-2-(tert-butoxy)-2-(5-(2-(6-(tert-butyl)thieno[3,2-d]pyrimidin-4-yl)-1,2,3,4-tetrahydroisoquinolin-6-yl)-4-(4,4-dimethylpiperidin-1-yl)-2,6-dimethylpyridin-3-yl)acetic acid], the 50% effective concentration (EC50) is 13 nM.

These data come from patent US10577353B2, “5-(n-[6,5]-fused bicyclic aryl tetrahydroisoquinolin-6-yl) pyridin-3-yl acetic acid derivatives as inhibitors of human immunodeficiency virus replication” (priority 2015, dated 2020).
